From ChEMBL document CHEMBL1149964, “The structure of MK-571 (form I) at 170 K and conformational analysis by molecular modeling” (Bioorg Med Chem Lett, 1992)

Key:
[1] = target: T1, Cysteinyl leukotriene receptor 1 (Homo sapiens) (UniProt Q9Y271); assay: In vitro antagonistic activity against leukotriene D4 receptor; A - Active; assay type: functional; conditions: filed as antagonist
T1 sequence (whole entry): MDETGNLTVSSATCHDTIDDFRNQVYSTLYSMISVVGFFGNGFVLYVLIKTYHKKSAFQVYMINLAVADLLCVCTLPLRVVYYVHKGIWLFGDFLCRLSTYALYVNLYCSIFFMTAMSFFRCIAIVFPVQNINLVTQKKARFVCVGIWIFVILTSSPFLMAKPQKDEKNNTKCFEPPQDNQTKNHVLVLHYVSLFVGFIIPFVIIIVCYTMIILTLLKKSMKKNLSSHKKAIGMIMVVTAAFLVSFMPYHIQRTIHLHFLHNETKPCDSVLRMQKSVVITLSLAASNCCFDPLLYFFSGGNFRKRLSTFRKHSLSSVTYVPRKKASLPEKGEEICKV

[2] = target: T1, Cysteinyl leukotriene receptor 1 (Homo sapiens); assay: In vivo antagonistic activity against leukotriene D4 receptor; A - Active; assay type: functional, organism-based; conditions: filed as antagonist

Activity [1] | Activity [2] | SMILES
Antagonist | Antagonist | CN(C)C(=O)CCSC(SCCC(=O)O)c1cccc(/C=C/c2ccc3ccc(Cl)cc3n2)c1 (centres undefined)
Antagonist | Antagonist | CN(C)C(=O)CCS[C@H](SCCC(=O)O)c1cccc(/C=C/c2ccc3ccc(Cl)cc3n2)c1
